These results are taken from article PMC3576842 (Cancer discovery, 2012).

The conditions of series [1]: human, in vivo; cited from earlier work.
The subject of series [2] is PC-9 cells (EGFR del E746_A750). As to the kind of experiment: EGFR signaling and apoptosis immunoblotting in PC-9 cells. It counts as cell-based, human. Background: A western blot detects proteins with antibodies after separation by electrophoresis.
For a further series, the system named is HCC827 cells. As to the kind of experiment: High-throughput tumor cell line screening / cell viability assay. Type of series: cell-based, human.
The subject of series [3] is HCC827 cells (EGFR del E746_A750). As to the kind of experiment: EGFR signaling and apoptosis immunoblotting in HCC827 cells. It counts as cell-based, human.
For series [4], the system named is EGFR delE746_A750 mutant lines (PC-9, HCC827, HCC4006). Description: Cell viability assay. It counts as cell-based, human. The conditions noted are these: read-out: IC50 cell viability; 72 hr; 3 NSCLC lines with EGFR delE746_A750.
The next series relates to PC-9 cells. As to the kind of experiment: High-throughput tumor cell line screening / cell viability assay. It counts as cell-based, human. The conditions noted are these: for effect on growth: even at high concentrations.
Series [5] deals with NCI-H1975 cells (EGFR L858R/T790M). Description: Cell viability assay. It counts as cell-based, human. The conditions noted are these: read-out: IC50 cell viability; 72 hr; L858R/T790M mutant line.
The target of series [6] is EGFR del E746_A750/T790M in erlotinib-resistant PC-9 cells (Homo sapiens, UniProt P00533, DEL746-750/T790M). Description: Drug wash-out assay. It counts as cell-based.
The test system of series [7] is lung adenocarcinomas driven by EGFR L858R/T790M. As to the kind of experiment: Genetically engineered NSCLC model. It counts as in vivo, mice.
The nature of a further series: in vivo. The conditions noted are these: athymic nude, mouse, plasma, oral, 100 mg/kg.
The target of another series is recombinant EGFR T790M (Homo sapiens, UniProt P00533, T790M). As to the kind of experiment: EGFR autophosphorylation assay. It counts as biochemical. The conditions noted are these: for inhibition of EGFR T790M autophosphorylation: ATP, 15 min; for concentrations as low as which inhibit EGFR T790M autophosphorylation: EGFR T790M mutants.
Series [8] deals with recombinant EGFR L858R/T790M (Homo sapiens, UniProt P00533, L858R/T790M). Description: EGFR autophosphorylation assay. Type of series: biochemical. The conditions noted are these: ATP, 15 min.
Series [9] concerns PC-9/ER xenografts (EGFR del E746_A750/T790M). Description: PC-9/ER xenograft study. The conditions noted are these: for tumor growth: daily oral gavage for 21 days, PKC412 100 mg/kg, WZ4002 25 mg/kg.
Series [10] addresses wild-type EGFR in NR6 cells (Homo sapiens, UniProt P00533). Description: Ligand-induced. The conditions noted are these: for inhibition of ligand-induced EGFR phosphorylation: NR6 wild-type EGFR, TGF-α. It counts as cell-based.
The target in series [11] is EGFR L858R/T790M in NR6 cells (Homo sapiens, UniProt P00533, L858R/T790M). As to the kind of experiment: Ligand-induced. The conditions noted are these: 16 hr, TGF-α 15 min. Type of series: cell-based.
The conditions of series [12]: PKC412 225 mg/d for 28 days, solid tumor tissues; cited from earlier work.
Series [13] concerns NCI-H1975 tumor xenografts (EGFR L858R/T790M). As to the kind of experiment: NCI-H1975 xenograft study. It counts as in vivo, Balb/c nude mice.
Series [14] concerns the target EGFR del E746_A750/T790M in NR6 cells (Homo sapiens, UniProt P00533, DEL746-750/T790M). Description: Ligand-induced. It counts as cell-based. The conditions noted are these: 16 hr, TGF-α 15 min.
Series [15] deals with recombinant EGFR wild-type (Homo sapiens, UniProt P00533). Description: EGFR autophosphorylation assay. It counts as biochemical.
The test system of another series is PC-9/ER cells. As to the kind of experiment: Anti-proliferative response of erlotinib-resistant PC-9 clone. The conditions noted are these: 10 μM erlotinib.
Setting [16] is: 1 μM, 72 hr, strong sensitivity defined as greater than 70% growth suppression.

pIC50: −log10 of the molar value. “Also recorded” adds a separate entry of the source.

Regarding `CO[C@@H]1[C@H](N(C)C(=O)c2ccccc2)C[C@H]2O[C@]1(C)n1c3ccccc3c3c4c(c5c6ccccc6n2c5c31)C(=O)N[C@H]4O` [CGP52421], the “plasma concentration of metabolite” value in series [1] was 20000 to 25000 nM.
Take `Cn1c2ccccc2c2c3c(c4c5ccccc5n(CCC#N)c4c21)CNC3=O` [Gö6976]: the “apoptosis (PARP cleavage)” value in [2] (PC-9) and in series [3] (HCC827) was “promotes apoptosis” throughout. Moreover, the “suppression of EGFR signaling” value in series [2] (PC-9, 1 μM) is recorded as “suppressed EGFR signaling as efficiently as erlotinib”; in series [3] (HCC827, 1 μM), “suppressed EGFR signaling as efficiently as erlotinib”. Also, the “growth inhibition in cell line screen” value in the series with HCC827 cells (setting [16]) and in the series on PC-9 cells (setting [16]) was “strongly growth inhibited” in each case. Also, the pIC50 in series [4] was 6.70 to 7.00; in series [5], approximately 6.10.
In the case of `CO[C@@H]1[C@H](N(C)C(=O)c2ccccc2)C[C@H]2O[C@]1(C)n1c3ccccc3c3c4c(c5c6ccccc6n2c5c31)C(=O)NC4` [PKC412], the “nature of inhibition (recovery of pEGFR after wash-out)” value in [6] is given as “reversible”. For the same molecule, in [7] (4 weeks of PKC412 treatment), the weight loss entry is listed as “No significant weight loss”. In addition, the values for the tumor growth entry in series [7] (4 weeks of treatment) and in series [9] were “growth inhibited for the first two weeks of treatment” and “tumors began to regress; also recorded: significant tumor regression”, respectively. In addition, the “phosphorylation of EGFR L858R/T790M in tumors” value in [7] (treated for 5 days) is “significant decrease in phosphorylation”. In the series “in vivo”, this molecule yielded a Cmax of 2910 nM. The molecule further displayed a concentration at 24 h in the series “in vivo” of 659 nM. Besides, the “inhibition of EGFR T790M autophosphorylation” value on recombinant EGFR T790M was “potently inhibit”. At recombinant EGFR T790M, the “concentrations as low as which inhibit EGFR T790M autophosphorylation” value fell in the range of 3 to 30 nM. For the same molecule, the “inhibition of EGFR L858R/T790M autophosphorylation” value in [8] was “potently inhibit”. Moreover, the “EGFR signaling in tumors after the last dosing” value in series [9] (Day 21, 4 hours after the last dosing) was “effective suppression of EGFR signaling”; in series [13] (4 hours after the last dosing) it was “effective suppression of EGFR signaling”. The body weight loss result in series [9] (daily oral 100 mg/kg, 21 days) is given as “no significant body weight loss”; in series [13] (daily oral 100 mg/kg), “no significant body weight loss”. The “inhibition of ligand-induced EGFR phosphorylation” value is given as “not significantly inhibited” in series [10] and “similarly potent ability to inhibit” in series [11]. Moreover, in [10] (PKC412 versus irreversible EGFR inhibitors), the “less activity against wild-type EGFR in drug-treated cells than irreversible EGFR inhibitors” value was found to be 500 fold. In addition, the “tissue concentration (median)” value in series [12] is 593 nM. Also, the “suppression of phospho-EGFR and phospho-AKT in tumors” value in [13] (daily for 3 days, PKC412 100 or 200 mg/kg, gefitinib 100 mg/kg) is reported as “Significant suppression”. The “tumor growth suppression compared to control-treated animals” value in series [13] (day 12, daily oral PKC412 100 mg/kg) was 50%.
Take `C=CC(=O)Nc1cccc(Oc2nc(Nc3ccc(N4CCN(C)CC4)cc3OC)ncc2Cl)c1` [WZ4002]: at recombinant EGFR T790M, the “inhibition of EGFR T790M autophosphorylation” value is “potent suppression”. For the same molecule, at recombinant EGFR T790M, the “concentrations as low as which inhibit EGFR T790M autophosphorylation” value is given as 10 nM. Also, the “inhibition of ligand-induced EGFR phosphorylation” value was “most potent inhibitor” in series [14], “modestly affected” in [10] and “similarly potent ability to inhibit” in series [11]. Besides, the “inhibition of EGFR L858R/T790M autophosphorylation” value in series [8] is recorded as “potent suppression”. In addition, the tumor growth result in series [9] was “efficiently inhibited”. Further, the “inhibition of wild-type EGFR autophosphorylation” value in series [15] (ATP, 15 min) is recorded as “ineffective”. Also, in [15] (autophosphorylation), the “concentrations with detectable inhibition of wild-type EGFR” value is “above 1 micromolar”.
In the case of `CN(C)CCCn1cc(C2=C(c3c[nH]c4ccccc34)C(=O)NC2=O)c2ccccc21` [bis-indolylmaleimide I], the effect on growth result in the series with HCC827 cells (even at high concentrations) and with PC-9 cells was “failed to detectably affect growth” in each case.
Take `C#Cc1cccc(Nc2ncnc3cc(OCCOC)c(OCCOC)cc23)c1` [erlotinib]: the anti-proliferative response result in the series with PC-9/ER cells was “no anti-proliferative response”.
For `CN1CCN(c2nc(C3=C(c4c[nH]c5ccccc45)C(=O)NC3=O)c3ccccc3n2)CC1` [sotrastaurin], the effect on growth result in the series on PC-9 cells is “failed to detectably affect growth”.

By pIC50 is commonly meant −log10 of the IC50, conventionally taken in molar units. Broadly, the Cmax is the peak of the concentration-time curve.
